Patent US10813931B2, “Methods and compositions relating to the treatment of cancer” (THE BRIGHAM AND WOMEN'S HOSPITAL, INC., priority 2013, dated 2020)

Legend:
231 parent and DTC = assay: Cell viability (MTS) and drug sensitivity index, 231 parent vs DTC vs 231Phenocopy; format: cell-based, human; settings: for cell viability of DTC, SFK and BCR-Abl inhibition separately and in combination: 231 DTC, PP2 and imatinib in combination
Experimental: (§1) Following viability analyses conducted as described in supplemental data, drug sensitivity index (SI) was determined as follows: Cell viability was determined as % of control for treatment conditions of 10 nM, 100 nM 1000 nM and 10 μM to generate an average cell viability across these 4 drug concentrations. SI was calculated as a ratio of parent:DTC or parent:parent^phenocopy. SI=1 correlates to parental sensitivity, SI<1 correlates to resistance compared to parent cell line and SI>1 correlates to enhanced sensitivity to the indicated drug compared to the parent cell line at the same concentration average.
as §1, with “Cells were exposed to indicated treatments ([…]) for 48 hours in serum containing medium. Following” for “Following”, “incubation, cells were washed 1 time with PBS and recovered” for “viability analyses conducted as described”, “serum and phenol red-free RPMI or DMEM and subsequently treated with MTS following manufacturer protocol (Promega, Madison, Wis.). Drug” for “supplemental data, drug”

231 DTC and 468DTC = assay: Cell viability of DTC subsets with dasatinib, PI103, combination or DPNP; format: cell-based, human; settings: combination of PI103 and dasatinib (1:1), 48 h
Experimental: (§2) Parent cells DTC or Parent^Phenocopy were generated as described and plated at a concentration of 1.5×10^5 in a clear bottom 96-well plate. Cells were exposed to indicated treatments ([…]) for 48 hours in serum containing medium. Following incubation, cells were washed 1 time with PBS and recovered in serum and phenol red-free RPMI or DMEM and subsequently treated with MTS following manufacturer protocol (Promega, Madison, Wis.). Drug sensitivity index (SI) was determined as follows: Cell viability was determined as % of control for treatment conditions of 10 nM, 100 nM 1000 nM and 10 μM to generate an average cell viability across these 4 drug concentrations. SI was calculated as a ratio of parent:DTC or parent:parent^phenocopy. SI=1 correlates to parental sensitivity, SI<1 correlates to resistance compared to parent cell line and SI>1 correlates to enhanced sensitivity to the indicated drug compared to the parent cell line at the same concentration average.

AKT and ezrin signaling = assay: Western blot of AKT, ezrin and ERM signaling in 468 cells treated with DTX +/- erlotinib; format: cell-based, human; settings: 10 nM DTX +/- erlotinib, 24 h
Experimental: MDA-MB-231 (ATCC) were cultured in DMEM containing 10% Fetal Bovine Serum (FBS), MDA-MB-468 MDA-MB-435 and 4T-1 mammary carcinoma cells (ATCC) were cultured in RPMI containing 10% FBS (Invitrogen, Carlsbad Calif.) at 37 C and 5% CO2. During treatments with chemotherapeutics, cells were grown to semi-confluence and treated with indicated concentrations of chemotherapy in serum-containing medium for indicated time points. When small molecule inhibitors were included in treatments, they were added simultaneously with chemotherapy. For siRNA gene knockdown, cells were plated at a concentration of 5×10^4 cells/ml. Pre-validated Silencer Select siRNA targeting pan-CD44 (5′[…]tt3′) (SEQ ID NO: 38) or Ezrin (5′[…]tt3′) (SEQ ID NO: 39) were purchased from Ambion (Invitrogen, Grand Island, N.Y.). siRNA plasmids were transfected using lipofectamine 2000 (Invitrogen, Carlsbad Calif.) following manufacturer protocol and cultured for 72 hours prior to treatment. Scrambled siRNA was used as a control.
Laemli sample buffer was prepared as a 5× solution containing β-mercaptoethanol as a reducing agent. […] Optical densities of western blots were measured using ImageJ™ open source software (National Institutes of Health) and validated using Adobe CS5™.

[1] = tested on: 468 parent cells and a subset of DTC; assay: Survival curves of 468 parent cells and DTC exposed to chemotherapy; format: cell-based, human; settings: 48 h exposure
Experimental: MDA-MB-231, MDA-MB-468 were purchased from ATCC. For acute treatments, cells were plated at a density of 0.5-1×10^5 cells/ml and allowed to adhere for 24-48 hr. when cells reached ˜70% confluency they were treated with antitubulins at indicated concentrations for 4-24 hours and utilized for subsequent assays. To generate chemotherapy tolerant subset, cells were treated with indicated concentrations of chemotherapy (48). Following washes with PBS, adherent cells were trypsinized and re-plated at a density of 1.5-2×10^5 cells/ml and cultured in serum-containing medium. After 24 hours incubation, floating cells were removed and remaining cells were washed with 1×PBS and considered a subpopulation of chemotherapy-tolerant cells. A separate plate of control cells were maintained concurrently in serum containing medium and provided fresh media at every interval where DTC received fresh media. […]
Parent cells DTC or Parent^Phenocopy were generated as described and plated at a concentration of 1.5×10^5 in a clear bottom 96-well plate. […] Drug sensitivity index (SI) was determined as follows: Cell viability was determined as % of control for treatment conditions of 10 nM, 100 nM 1000 nM and 10 μM to generate an average cell viability across these 4 drug concentrations. SI was calculated as a ratio of parent:DTC or parent:parent^phenocopy. […]

MDA-MB-231 (231) = assay: CD44 surface expression by FACS in 231 cells; format: cell-based, human; settings: 231 cells surviving 500 nM doxorubicin
Experimental: MDA-MB-231, MDA-MB-468 were purchased from ATCC. For acute treatments, cells were plated at a density of 0.5-1×10^5 cells/ml and allowed to adhere for 24-48 hr. when cells reached ˜70% confluency they were treated with antitubulins at indicated concentrations for 4-24 hours and utilized for subsequent assays. To generate chemotherapy tolerant subset, cells were treated with indicated concentrations of chemotherapy (48). Following washes with PBS, adherent cells were trypsinized and re-plated at a density of 1.5-2×10^5 cells/ml and cultured in serum-containing medium. […]
Cells were cultured as indicated and fixed with 4% paraformaldehyde in PBS for 30 min at RT and blocked in 10% goat serum (v/v). Following PBS washes, cells were incubated with indicated antibodies for 60 minutes at room temperature or overnight at 4 C and analyzed by FACS (Accuri cyomteters Inc. Ann Arbor, Mich.). Cell cycle analyzed in propidium iodide solution following incubation in 70% Ethanol overnight at 4 C and following manufacturer protocol (Genscript USA Inc. Piscataway, N.J.). AnnexinV/PI was analyzed FACS following manufacturer protocol (BD, Ann Arbor Mich.). All FACS results were analyzed by FlowJo™ software following a rigorous doublet discrimination based on FSC:A vs. width as well as FSC:A vs. height (Tree Star Inc., Ashland Oreg.). […]

AKT signaling = assay: Western blot of phosphorylated and total Akt in 231 DTC; format: cell-based, human; settings: increasing doses, 4 h
Experimental: Laemli sample buffer was prepared as a 5× solution containing β-mercaptoethanol as a reducing agent. Immunoprecipitaion was performed using both classic and direct IP kits purchased from Pierce following manufacturer protocols (Thermo Fisher inc. Rockford, Ill.). Briefly, cell lysates were prepared using IP/Lysis Buffer (Thermo Fisher inc. Rockford, Ill.) in the presence of 2×HALT protease/phosphatase inhibitor cocktail (Thermo Fisher inc. Rockford, Ill.). For classic Immunoprecipitation, lysates were combined with indicated antibodies for 48 hours at 4 C and combined with protein A/G agarose beads for 4 hours prior to elution with 2× Laemli Buffer at 100 C. Direct immunoprecipitation was performed following manufacturer protocol. Briefly, antibodies were covalently attached to agarose beads, lysate was combined with antibody-agarose bead conjugates for 24 hours prior to washes and elution with provided Elution Buffer. Protein samples were resolved by SDS-PAGE and transferred to PVDF membranes prior to incubation at 4 C with indicated primary antibodies. […] Optical densities of western blots were measured using ImageJ™ open source software (National Institutes of Health) and validated using Adobe CS5™.

[2] = tested on: explant from stage IV, metastatic breast cancer patient; assay: Refractory stage IV metastatic breast cancer explant, caspase activation; set-up: species or system human; settings: combination of dasatinib with DTX, 48 h
Experimental: Fresh tumor tissues were collected from breast cancer patients immediately after surgical resection at HCG cancer hospital, Bangalore, India. The tumor samples were transported to the laboratory at 4° C., in appropriate transport buffer within 60 minutes post-resection, for ex-vivo studies and molecular and pathological evaluation. Tissues were cut into thin sections and cultured in 96 well plate using optimized conditions (Radhakrishnan et al., 2013). Tumors were treated with a taxane-containing regimen (Docetaxel+Doxorubicin+Cyclophosphamide) or other drugs as indicated. DMSO was used as a vehicle control. After 48 hrs of treatment, tumor cell viability was measured and release of soluble cleaved caspase-3 and caspase-8 were determined.
Human Tumor tissues were fixed in Phos stop (Roche) containing 4% buffered formalin and embedded in paraffin. Prior to immunohistochemical staining of target proteins 4-μm-thick tissue sections mounted in poly L lysine coated glass slides were deparaffinized and rehydrated. Heat induced antigen retrieval was achieved using citrate buffer (pH7.8). […] Immunoreactivity was scored by intensity of staining (0, no staining, 1 weak; 2 moderate; 3 strong) and percentage of positive cells. By multiplying both values, a final score was calculated. […]

TNBC = settings: 2011, cited from earlier work
[3] = tested on: DTC subsets derived from multiple cancer types; assay: Drug sensitivity index of dasatinib in DTC isolated from multiple cell lines; format: cell-based; settings: DTC from multiple cell lines vs parent, 48 h
Experimental: as §1
as §2, with “SI=1 correlates to parental sensitivity, SI<1 correlates to resistance compared to parent cell line and SI>1 correlates to enhanced sensitivity to the indicated drug compared to the parent cell line at the same concentration average.” left out

[4] = tested on: 4T-1 mouse mammary carcinoma; assay: 4T-1 tumor growth in Balb/C mice; format: in vivo
Experimental: 4-6 week old Balb/C mice (Charles River, Cambridge Mass.) were inoculated with 10^6 4 T-1 mouse mammary carcinoma cells in the left flank (Charles River, Cambridge Mass.). Mice identified with tumors were treated with docetaxel (DTX) or vehicle twice at 72 hour intervals at 10 mg/kg i.v. or 15 mg/kg i.p. and subsequently treated with dasatinib i.p. or nanoparticles i.v. 72 hours following the final DTX dose. Tumors were harvested at indicated time points and evaluated for protein phosphorylation and expression. Experimental detail provided in supplemental data.
1 million 4T-1 mouse mammary carcinoma cells suspended in 100 µL PBS were injected per left flank of 5-6 week old Balb/C (Charles River, Wilmington Mass.). DTX was dissolved in pure Ethanol at a concentration of 50 mg/ml mixed 1:1 with Polysorbate 80 (Tween 80) and brought to a final working concentration with 5% glucose in PBS. Once Tumors became palpable (˜100 mm^3), DTX or vehicle treatments were administered at 100 μL volumes. Dasatinib was dissolved in DMSO to working concentration and delivered as 50 μL injections on indicated days, 50 µL DMSO used as a control in these studies. Tumor volumes were measured by a third party unaware of treatment conditions using digital calipers (Starlett, Athol, Mass.), volumes were assessed by the following formula: (Width×Width×length)/2 and expressed as relative volume increase from day 1. Tumor homogenate was prepared by homogenization of equal weight tissue sections incubated in 3×RIPA buffer containing 2× protease/phosphatase inhibitor cocktail (Thermo Fisher, Waltham, Mass.).

Cc1ccc(NC(=O)c2ccc(CN3CCN(C)CC3)cc2)cc1Nc1nccc(-c2cccnc2)n1 [imatinib]
cell viability of DTC, SFK and BCR-Abl inhibition separately and in combination (231 parent and DTC): dual inhibition does not further augment the sensitivity of the DTC population

Oc1cccc(-c2nc(N3CCOCC3)c3oc4ncccc4c3n2)c1 [PI103]
cell death in the DTC subset, combination (231 DTC and 468DTC): synergistic induction of cell death

C#Cc1cccc(Nc2ncnc3cc(OCCOC)c(OCCOC)cc23)c1 [erlotinib]
ERM-complex signaling (AKT and ezrin signaling): remained intact
induction of AKT and ezrin signaling in response to chemotherapy (AKT and ezrin signaling): prevented induction of AKT and ezrin signaling

COc1cccc2c1C(=O)c1c(O)c3c(c(O)c1C2=O)C[C@@](O)(C(=O)CO)C[C@@H]3O[C@H]1C[C@H](N)[C@H](O)[C@H](C)O1 [doxorubicin]
susceptibility of DTC to chemotherapy vs parent cell [1]: acquired resistance
CD44 expression of doxorubicin tolerant cells (Dox-TC) (MDA-MB-231 (231)): robust expression of CD44

Cc1nc(Nc2ncc(C(=O)Nc3c(C)cccc3Cl)s2)cc(N2CCN(CCO)CC2)n1 [dasatinib]
AKT signaling (phosphorylated Akt, western blot) (AKT signaling): reduced, to a minor degree, AKT signaling
apoptosis, cleaved caspase 3 (IHC) [2]: could re-sensitize the refractory cancer tissue to chemotherapy
caspase 8 levels [2]: no change
clinical efficacy as single-agent in TNBC (TNBC; Finn et al.): failed as a single-agent
toxicity in clinical trials (TNBC; Herold et al.): significant toxic burden
cell death in the DTC subset, combination (231 DTC and 468DTC): synergistic induction of cell death
dasatinib sensitivity-index in additional DTC subsets [3]: consistent in additional DTC subsets derived from multiple cancer types
tumor growth rate (specific growth rate) ([4]; 'Early Dasatinib', given 72 hours following DTX): significantly augmented the reversal of tumor growth rate
tumor growth rate (specific growth rate) ([4]; 'Late Dasatinib', 216 hours following DTX): ineffective
relative tumor volume ([4]; early treatment group after DTX): tumor regression could be achieved
relative tumor volume ([4]; late treatment after DTX vs matched vehicle control): no difference over a matched vehicle control
sensitivity (SI) of 231Phenocopy (231 parent and DTC; 231Phenocopy vs 231 parent): regained parental sensitivity
Sensitivity index (SI) (231 parent and DTC; DTC vs parental cell line, 48 h, average viability across 10 nM, 100 nM, 1000 nM and 10 μM): > 1

CO[C@H]1C(=O)[C@]2(C)[C@@H](OC)C[C@H]3OC[C@@]3(OC(C)=O)[C@H]2[C@H](OC(=O)c2ccccc2)[C@]2(O)C[C@H](OC(=O)[C@H](O)[C@@H](NC(=O)OC(C)(C)C)c3ccccc3)C(C)=C1C2(C)C [cabazitaxel]
susceptibility of DTC to chemotherapy vs parent cell [1]: insensitive

CC(C)(C)n1nc(-c2ccc(Cl)cc2)c2c(N)ncnc21 [PP2]
cell viability of DTC, SFK and BCR-Abl inhibition separately and in combination (231 parent and DTC): dual inhibition does not further augment the sensitivity of the DTC population
